In US20040001834A1, “Phospholipase A2 enzyme, antibodies and inhibitors thereto” (priority 2002, published 2004):
“Also recorded” adds a separate entry of the source.

What was measured:
rPLA2 = rPLA2 enzyme activity assay with 2-[1-14C]AA-GPC substrate in the presence of inhibitors or divalent metal ions; format: biochemical, bovine; conditions: for inhibition of rPLA2 activity: substrate 2-[1-14C]AA-GPC, 10 min; for effect on rPLA2 activity compared with cPLA2: comparison rPLA2 versus cPLA2
Protocol: To verify the effect of known inhibitors on the activity of rPLA2, the various concentrations of inhibitors, i.e., DTT (dithiothtreitol), AACOCF3 (arachidonylfluoromethyl ketone) known as the cPLA2 inhibitor, mepacrine and methyl mercury, mercuric chloride known as the sPLA2 inhibitors were added to active pool from Mono Q column and reacted 2-[1-^14C]-AA-GPC as a substrate for 10 min. The comparative groups, cPLA2 and sPLA2, were subjected to in a same procedure.
To verify the effect of divalent metal ions on enzyme activity, to rPLA2 activity, various concentrations of divalent metal i.e., Zn^2+, Fe^2+, Cu^2+, Sr^2+, Ba^2+, Mn^2+ and Mg^2+ were added to active pool from Mono Q column and reacted 2-[1-^14C]-AA-GPC as a substrate for further 10 min. The comparative groups, cPLA2 and sPLA2, were subjected to in a same procedure.
To measure the functions of rPLA2 using inventive antibody, the supernatant obtained from above procedure was adopted to analyze the activity. PLA2 activity was measured in an assay system (100 μl) of 75 mM Tris-HCl (pH 7.5) containing […] of 2-[1-^14C]AA-GPC (110,000 cpm/4.5 nmol) mixed with 2-[1-^14C]AA-GPC, 4% glycerol, 5 mM CaCl2 and 0.2 % BSA.
Prepared rPLA2 and cPLA2 and each inhibitor dissolved in 5 μl of DMSO solution was added and reacted for 10 min at 37° C. maintaining the temperature. 2-[1-^14C]AA-PC as a substrate was added and reacted for 10 min at 37° C. maintaining the temperature.
To verify the mechanism of inhibition, Dixon plot was constructed (FIG. 31).

bovine RBCs = test: [3H]AA release from labeled bovine RBCs; format: cell-based; conditions: for inhibition of AA release by A23187 in bovine RBC: 50 μM of EA4, 20 min, then 2 μM A23187, 37 °C
Protocol: (§1) Human venous blood was collected in heparin (40 unit/ml) from some healthy volunteers among the Korean graduate students in our laboratory and bovine blood freshly collected in heparin (40 unit/ml) in a local slaughterhouse. After blood was centrifuged at 500×g for 20 min, the resulting supernatants of the platelet-rich plasma, the buffy coat and the leading edge of the packed RBCs were completely removed by aspiration. Sedimented RBCs, leukocytes, and platelets were re-suspended in a sterile buffer (50 mM Tris-HCl, pH 7.5, 1 mM EDTA, 0.12 M NaCl). This centrifugation and aspiration cycle was repeated six times taking care of removing leukocytes and platelets and the top 10% of the RBCs suspensions. Washed cell suspensions (10 ml) were subsequently depleted of residual leukocytes and platelets by filtration through a Sepharose 4B-200 column (20×2.5 cm) pre-equilibrated with sterile saline (0.9% w/v NaCl) as described above.
(§2) The Sepharose 4B-200 column-purified RBCs suspensions (approximately 1×10^9 cells/ml) were twice washed with serum-free MEM containing 1 mg/ml of fatty acid-free bovine serum albumin (BSA) and labeled for 1 hr with 1.5 mCi [^3H]AA (1 mCi/0.1 ml ethanol)/ml of the same medium. Murine L929 cells (1-2×10^6 cells/ml) were labeled for 6 hrs with 1.5 mCi [^3H]AA (1 mCi/0.1 ml ethanol)/ml of the same medium. Thereafter, cells were washed three times to remove all unincorporated [^3H]AA. […]
(§3) For analysis of [^3H] AA release, at each time of 0, 10, 30, 60 and 90 min after reaction between the cell and A23187, the RBCs were centrifuged as above, and each aliquot (200 μl) of the supernatants for the RBCs and each aliquot (100 μl ) of the conditioned media for the L929 cells was transferred to 2.5 ml of the scintillation counting solution and counted for radioactivity with a Packard Tri-carb liquid β-scintillation counter (Packard Instrument Co., Meriden, Conn.). […]
(§4) Cells were collected and centrifuged at the interval of 10 min. And the radioactivity was measured by scintillation counter.

cPLA2 = cPLA2 enzyme activity assay with inhibitors (comparative group); format: biochemical, porcine; conditions: substrate 2-[1-14C]AA-PC, 10 min, 37° C.
Description: Stearoyl-2-[1-^14C]arachidonyl-sn-glycerol-3-phosphocholine (2-[1-^14C]AA-GPC) (55.3 mCi/mmol), 1-palmitoyl-2-[1-^14C]palmitoyl-sn-glycerol-3-phosphocholine (2-[1-^14C]PA-GPC) (55.6 mCi/mmol), 1-palmitoyl-2-[1-^14C]linoleoyl-sn-glycerol-3-phosphocholine (2-[1-^14C]LA-GPC) (55.9 mCi/mmol), 1-acyl-2-[1-^14C]arachidonyl-sn-glycerol-3-phosphoethanolamine (2-[1-^14C]AA-GPE) (55.1 mCi/mmol) and [^3H]arachidonic acid (AA) (204 Ci/mmol) ([^3H]AA) were purchased from the radio-chemical center, Amersham Life Science Ltd. (Buckinghamshire, UK). 1-Stearoyl-2-arachidonyl-sn-glycerol-3-phosphocholine (2-AA-GPC), dithiothreitol (DTT), A23187, 3,3′-diaminobenzidine (DAB), methylcellulose, erythropoietin and Sepharose 4B-200 gel filtration column were purchased from Sigma Co. (St. Louis, Mo.). Anti-human secretory 14 kDa sPLA2 antibody was purchased from Upstate Biotechnology, Inc. (Lake Placid, N.Y.). Goat anti-rabbit- and anti-mouse-alkaline phosphatase conjugates were purchased from Santa Cruz Biotechnology Inc., Santa Cruz, Calif. Group IV cytosolic PLA2 (cPLA2) was purified from porcine spleen and anti-cPLA2 polyclonal antibody was generated as described above(Kim, D. K., and Bonventure, J. V., Biochem. J., 294, 261-270, 1993). Group II secretory PLA2 (sPLA2) was partially purified from bovine platelets as described above (Hara, S et al., J. biochem., 105, 395-399, 1989). […]

L929 cells = test: [3H]AA release from labeled L929 cells; format: cell-based, murine; conditions: 50 μM of EA4, 20 min, then 2 μM A23187, 37 °C
Protocol: The Sepharose 4B-200 column-purified RBCs suspensions (approximately 1×10^9 cells/ml) were twice washed with serum-free MEM containing 1 mg/ml of fatty acid-free bovine serum albumin (BSA) and labeled for 1 hr with 1.5 mCi [^3H]AA (1 mCi/0.1 ml ethanol)/ml of the same medium. Murine L929 cells (1-2×10^6 cells/ml) were labeled for 6 hrs with 1.5 mCi [^3H]AA (1 mCi/0.1 ml ethanol)/ml of the same medium. Thereafter, cells were washed three times to remove all unincorporated [^3H]AA. The labeled cells were incubated in MEM containing 1 mg/ml BSA as a trap for the released [^3H]AA and then stimulated with vehicle (0.1 μl ethanol/ml medium) or 2 μM of calcium ionophore A23187 at 37° C. And a control group is treated with vehicle only without A23187 compound.
as §3, §4

human RBCs = test: [3H]AA release from labeled human RBCs; format: cell-based; conditions: for inhibition of AA release by A23187 in human RBC: 50 μM of EA4, 20 min, then 2 μM A23187, 37 °C
Protocol: as §1, §2, §3, §4

[1] = 2 μM A23187, 37° C., 0-90 min, time-dependent

With [Sr+2] [Sr^2+] the “activation of rPLA2 activity by divalent metal cation” value (“activation of rPLA2 activity” for short) (rPLA2) was “activated”.

For CCN(CC)c1ccc(C2=C(Cl)C(=O)c3ncccc3C2=O)cc1 [EA4, 7-chloro-6-[4-(diethylamine)phenyl]-5,8-quinolinedione], the “inhibition of AA release by A23187 in bovine RBC” value (bovine RBCs) was “significantly inhibited; also recorded: inhibits the release”, the “inhibition of cPLA2 activity” value (cPLA2) was “inhibited; also recorded: inhibits the activity of cPLA2” and the “inhibition of AA release in L929 cells” value (L929 cells) was “inhibited”. For the same compound, the “inhibitory pattern on rPLA2” value (rPLA2; Dixon plot) was “competitive; also recorded: competitively”, the Ki (rPLA2; Dixon plot, competitive inhibition, read-out: inhibition constant (Ki) for rPLA2) was 130 µM and the “inhibition of rPLA2 activity” value (rPLA2) was “inhibited”. The “inhibition of AA release by A23187 in human RBC” value (human RBCs) was “significantly inhibited”.

In the case of [CH3][Hg][Cl] [methyl mercury, reference compound], the “effect on rPLA2 activity compared with cPLA2” value (rPLA2) is reported as “less effective activity than cPLA2” and the “inhibition of rPLA2 activity” value (rPLA2) is reported as “not inhibited”.

With CNc1ccc2oc(C[C@H]3O[C@@]4(CC[C@H]3C)O[C@H]([C@H](C)C(=O)c3ccc[nH]3)[C@H](C)C[C@H]4C)nc2c1C(=O)O [A23187, reference compound] the “release of [3H]AA from bovine RBCs” value (bovine RBCs; [1]) was “released” and the “release of [3H]AA from human RBCs” value (human RBCs; [1]) was “released”.

With [Zn+2] [Zn^2+] the “activation of rPLA2 activity” value (rPLA2) was “activated”.

In the case of [Cu+2] [Cu^2+], the “activation of rPLA2 activity” value (rPLA2) is reported as “activated”.

In the case of [Ba+2] [Ba^2+], the “activation of rPLA2 activity” value (rPLA2) is reported as “activated”.

For O[C@H](CS)[C@H](O)CS (racemic) [DTT, dithiothreitol, reference compound], the “inhibition of rPLA2 activity” value (rPLA2) was “not inhibited”.

For CC(C)(C)c1cc(C2=C(Cl)C(=O)c3ccccc3C2=O)cc(C(C)(C)C)c1O [TP1, 2-(3,5-Di-tert-butyl-4-hydroxyphenyl)-3-chloro-1,4-naphthalene dione, reference compound], the “inhibition of AA release by A23187 in bovine RBC” value (bovine RBCs) was “not inhibited”, the “inhibition of cPLA2 activity” value (cPLA2) was “inhibited” and the “inhibition of AA release in L929 cells” value (L929 cells) was “inhibited”. The “inhibition of rPLA2 activity” value (rPLA2) was “inhibited that of cPLA2 only; also recorded: not inhibited” and the “inhibition of AA release by A23187 in human RBC” value (human RBCs) was “not inhibited”.

[Mn+2] [Mn^2+] was tested, and the “activation of rPLA2 activity” value (rPLA2) was “activated”.

For [Fe+2] [Fe^2+], the “activation of rPLA2 activity” value (rPLA2) was “activated”.

In the case of CCN(CC)CCCC(C)Nc1c2ccc(Cl)cc2nc2ccc(OC)cc12 (stereo not drawn) [mepacrine, reference compound], the “inhibition of rPLA2 activity” value (rPLA2) is reported as “not inhibited”.

For [Mg+2] [Mg^2+], the “activation of rPLA2 activity” value (rPLA2) was “activated”.

[Cl][Hg][Cl] [mercuric chloride, reference compound] was tested, and the “effect on rPLA2 activity compared with cPLA2” value (rPLA2) was “different profile from cPLA2” and the “inhibition of rPLA2 activity” value (rPLA2) was “not inhibited”.
